Consider twelve molecules from ChEMBL document CHEMBL1201862, “PubChem BioAssay data set” (2004).

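Five compound concentrations were applied to cells in 96-well plates for 48 hours; endpoints were derived by simple linear interpolation of the resulting dose-response curve. GI50: concentration for 50% inhibition of growth.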 Activity calls are given as the source filed them. No stated cut-off is given here; in the data, active = GI50 up to about 1.1 µM and inactive = higher. Some results are limits rather than exact numbers.

Some test systems named below: A498; CAKI-1; HCC 2998; HCT-15; HOP-92; K562; NCI-H460; OVCAR-5; OVCAR-8; RXF 393; SK-MEL-2; SNB-19; SR; TK-10; UACC-257; UACC-62; SF-268; PC-3.
Assay in all cases: NCI anticancer screen, dose series, 48 h

As to `O=C(/C=C\c1cccc2ccccc12)c1cccc2ccccc12`, the GI50 in the experiment with A498 is 17.2 µM (inactive); in the experiment on CAKI-1 it was 8.07 µM (inactive); with HCC 2998 it was 13.1 µM (inactive); with HCT-15, 4.03 µM; in the experiment on HOP-92, > 10 µM (inactive); in the experiment with K562, 4.92 µM (inactive). The GI50 in the experiment on NCI-H460 was 8.65 µM (inactive); in the experiment with OVCAR-5, > 10 µM (inactive); in the experiment with OVCAR-8 it was 5.82 µM (inactive); in the experiment on RXF 393, 5 µM (inactive); in the experiment with SK-MEL-2, 18.6 µM (inactive); in the experiment on SNB-19 it was 10.6 µM (inactive). Besides, the GI50 in the experiment with SR is 3.25 µM (inactive); with TK-10, > 10 µM (inactive); in the experiment with UACC-257 it was 16 µM (inactive); in the experiment with UACC-62, 9.04 µM (inactive).

Consider `O=C(Nc1ccccc1)N1C(c2ccccc2)=N[C@@H](c2ccccc2)[C@@H]1c1ccccc1`, for which the GI50 is 18.3 µM (inactive) in the experiment with A498; 21.5 µM (inactive) in the experiment on CAKI-1; 18.5 µM (inactive) with HCC 2998; 23.8 µM with HCT-15; 18.3 µM (inactive) with HOP-92; 17.7 µM (inactive) in the experiment with K562. Besides, the GI50 in the experiment on NCI-H460 was 31.4 µM (inactive); in the experiment with OVCAR-5, 19.3 µM (inactive); with OVCAR-8 it was 22.8 µM (inactive); in the experiment with RXF 393 it was 15.2 µM (inactive); in the experiment with SF-268 it was 22.3 µM (inactive); in the experiment with SNB-19, 31.6 µM (inactive). For the same molecule, the GI50 was 14.8 µM (inactive) with SR, 31.3 µM (inactive) in the experiment with TK-10, 19 µM (inactive) with UACC-257 and 19.9 µM (inactive) in the experiment with UACC-62.

Consider `CC[n+]1c(/C=C/c2ccc(N(CCCl)CCCl)cc2)ccc2cc(I)ccc21`, for which the GI50 with A498 is 2.51 µM (inactive); in the experiment with CAKI-1 it was 2 µM (inactive); in the experiment with HCC 2998, 1.24 µM (inactive); in the experiment with HCT-15 it was 6.52 µM; with HOP-92, 0.379 µM (active); in the experiment with K562, 0.335 µM (active). In addition, the GI50 in the experiment on NCI-H460 is 1.31 µM (inactive); in the experiment on OVCAR-5, 1.96 µM (inactive); with OVCAR-8, 0.771 µM (active); with RXF 393, 0.839 µM (active); in the experiment with SF-268, 1.78 µM (inactive); with SK-MEL-2, 0.372 µM (active). The GI50 with SNB-19 was 0.843 µM (active); in the experiment with SR, 0.659 µM (active); with TK-10, 2.05 µM (inactive); with UACC-257, 0.514 µM (active); in the experiment with UACC-62, 0.507 µM (active).

Regarding `COC(=O)CSc1nc2[nH]c(SC)c(C(N)=O)c2c(=O)n1-c1ccccc1`, the GI50 is > 10 µM (inactive) in the experiment on CAKI-1; > 10 µM (inactive) in the experiment on HCC 2998; over 10 µM with HCT-15; > 10 µM (inactive) with HOP-92; > 10 µM (inactive) in the experiment on K562; > 10 µM (inactive) in the experiment on OVCAR-8. In addition, the GI50 in the experiment on PC-3, in the experiment with RXF 393, with SF-268, with SR, with TK-10 and with UACC-257 was > 10 µM (inactive) in each case. Besides, the GI50 with UACC-62 is > 10 µM (inactive).

Regarding `CCOC(=O)NC(=O)c1cn(CCN2CCN(C(=O)CCCCCCCCCCC(=O)N3CCN(CCn4cc(C(=O)NC(=O)OCC)c(=O)[nH]c4=O)CC3)CC2)c(=O)[nH]c1=O`, the GI50 in the experiment on A498 was > 100 µM (inactive); in the experiment on CAKI-1, > 100 µM (inactive); in the experiment on HCC 2998, > 100 µM (inactive); in the experiment with HOP-92 it was > 100 µM (inactive); in the experiment on K562, > 100 µM (inactive); in the experiment on OVCAR-5, 51.6 µM (inactive). Also, the GI50 with OVCAR-8, in the experiment on SF-268, with SNB-19, in the experiment with SR, in the experiment with TK-10 and in the experiment with UACC-257 was > 100 µM (inactive) in each case.

`CCN(CC)CCNC(=O)c1nn(C)c(=S)[nH]c1=S`: the GI50 was > 100 µM (inactive) in the experiment with CAKI-1; > 100 µM (inactive) in the experiment with HCC 2998; over 100 µM in the experiment on HCT-15; > 100 µM (inactive) in the experiment with HOP-92; > 100 µM (inactive) with K562; > 100 µM (inactive) with NCI-H460. For the same molecule, the GI50 with OVCAR-5, in the experiment with OVCAR-8, in the experiment with RXF 393, in the experiment on SK-MEL-2, in the experiment on SNB-19 and with SR was > 100 µM (inactive) in each case. The GI50 in the experiment on TK-10, with UACC-257 and with UACC-62 was > 100 µM (inactive) in each case.

For the molecule `Cc1ccc(S(=O)(=O)N/N=C/c2oc(-c3cccc([N+](=O)[O-])c3)c(-c3cccc([N+](=O)[O-])c3)c2[N+](=O)[O-])cc1`, the GI50 is > 100 µM (inactive) in the experiment with A498; > 100 µM (inactive) with CAKI-1; > 100 µM (inactive) with HCC 2998; 62.2 µM in the experiment on HCT-15; 31.9 µM (inactive) in the experiment with HOP-92; 24.9 µM (inactive) in the experiment with K562. The GI50 in the experiment with NCI-H460 was > 100 µM (inactive); in the experiment with OVCAR-5 it was > 100 µM (inactive); in the experiment with OVCAR-8, 70.6 µM (inactive); in the experiment with RXF 393, 27 µM (inactive); in the experiment on SF-268, 21.2 µM (inactive); with SK-MEL-2, 28.3 µM (inactive). Moreover, the GI50 in the experiment with SNB-19 was 67.1 µM (inactive); in the experiment on SR, 17.6 µM (inactive); with TK-10, > 100 µM (inactive); with UACC-257, 64.7 µM (inactive); in the experiment on UACC-62, 17.8 µM (inactive).

For `NC1c2ccccc2Nc2ccccc21`, the GI50 with A498 is 8.34 µM (inactive); with CAKI-1 it was 3.63 µM (inactive); in the experiment with HCC 2998, 6.46 µM (inactive); in the experiment with HCT-15, 3.31 µM; in the experiment on HOP-92, 3.27 µM (inactive); with K562, 3.54 µM (inactive). Moreover, the GI50 is 2.76 µM (inactive) in the experiment with NCI-H460; 5.04 µM (inactive) with OVCAR-5; 4.34 µM (inactive) with OVCAR-8; 6.24 µM (inactive) in the experiment with RXF 393; 3.08 µM (inactive) in the experiment with SF-268; 13.2 µM (inactive) with SK-MEL-2. Besides, the GI50 in the experiment with SNB-19 was 5.18 µM (inactive); with SR, 2.64 µM (inactive); in the experiment with TK-10, 5.82 µM (inactive); in the experiment on UACC-257, 5.21 µM (inactive); with UACC-62 it was 4.26 µM (inactive).

Turning to `CCCc1c(C(=O)OCC)[nH]c(-c2ccc(-c3[nH]c(C(=O)OCC)c(CCC)c3C(=O)OCC)s2)c1C(=O)OCC`, the GI50 is 43.9 µM (inactive) in the experiment with A498; 39.7 µM (inactive) in the experiment with CAKI-1; 20.6 µM (inactive) with HCC 2998; 92.5 µM with HCT-15; 25.2 µM (inactive) in the experiment on HOP-92; 79.4 µM (inactive) in the experiment on K562. The GI50 in the experiment with NCI-H460 was 37 µM (inactive); in the experiment on OVCAR-5, 86.3 µM (inactive); with OVCAR-8 it was 48 µM (inactive); in the experiment with RXF 393, 5.38 µM (inactive); in the experiment with SF-268, 26.9 µM (inactive); in the experiment on SK-MEL-2, 15.7 µM (inactive). Moreover, the GI50 was 78.3 µM (inactive) with SNB-19; 7.26 µM (inactive) in the experiment on SR; 50.1 µM (inactive) with TK-10; 66.1 µM (inactive) in the experiment on UACC-257; 32.1 µM (inactive) in the experiment with UACC-62.

Regarding `O=C(/C=C/c1ccccc1)NC1C=Nc2ccc(Cl)cc2NC1=O` (stereo unspecified), the GI50 with A498 is 21.7 µM (inactive); in the experiment on CAKI-1, 22.6 µM (inactive); in the experiment with HCC 2998 it was 21.2 µM (inactive); with HCT-15, 22.1 µM; in the experiment with HOP-92 it was 32.2 µM (inactive); in the experiment on K562 it was 9.42 µM (inactive). The GI50 with NCI-H460 was 20.9 µM (inactive); in the experiment on OVCAR-5, 44.5 µM (inactive); in the experiment on OVCAR-8 it was 29.5 µM (inactive); in the experiment with RXF 393, 16.2 µM (inactive); in the experiment on SF-268, 36.2 µM (inactive); in the experiment with SK-MEL-2 it was 30.5 µM (inactive). Further, the GI50 in the experiment on SNB-19 is 29.1 µM (inactive); in the experiment on SR, 7.01 µM (inactive); with TK-10 it was 36 µM (inactive); with UACC-257, 26.4 µM (inactive); in the experiment on UACC-62, 26.2 µM (inactive).

Consider `O=C1Oc2cc3c(c4cccc1c24)OCN(c1ccc(Cl)cc1)C3`, for which the GI50 in the experiment on A498 was > 100 µM (inactive); in the experiment with CAKI-1, 38.8 µM (inactive); with HCC 2998, 27.4 µM (inactive); in the experiment with HCT-15, 2.97 µM; in the experiment on HOP-92, 20.5 µM (inactive); with K562, 0.923 µM (active). Moreover, the GI50 in the experiment on NCI-H460 is 2.31 µM (inactive); in the experiment with OVCAR-5, > 35.8 µM (inactive); in the experiment on OVCAR-8, 11.7 µM (inactive); in the experiment with RXF 393, > 52.7 µM (inactive); in the experiment with SF-268, 23.9 µM (inactive); in the experiment with SK-MEL-2 it was 1.83 µM (inactive). The GI50 with SNB-19 was 47.8 µM (inactive); in the experiment on SR, 8.79 µM (inactive); with TK-10 it was > 100 µM (inactive); with UACC-257 it was 34.9 µM (inactive); in the experiment on UACC-62 it was 4.79 µM (inactive).

On to `CCSC1=C(C)N(/C=N/C(C)(C)C)CC1`, for which the GI50 was > 100 µM (inactive) in the experiment with A498; > 100 µM (inactive) in the experiment with CAKI-1; > 100 µM (inactive) in the experiment on HCC 2998; over 100 µM in the experiment on HCT-15; > 100 µM (inactive) with HOP-92; > 100 µM (inactive) in the experiment with K562. The GI50 in the experiment on NCI-H460, with OVCAR-5, in the experiment on OVCAR-8, in the experiment on RXF 393, in the experiment on SF-268 and in the experiment on SK-MEL-2 was > 100 µM (inactive) in each case. The GI50 with SNB-19, in the experiment with SR, in the experiment on TK-10, with UACC-257 and in the experiment with UACC-62 was > 100 µM (inactive) in each case.
